Data from PMC6152116, “Sulfonamide-Linked Ciprofloxacin, Sulfadiazine and Amantadine Derivatives as a Novel Class of Inhibitors of Jack Bean Urease; Synthesis, Kinetic Mechanism and Molecular Docking” (Molecules : A Journal of Synthetic Chemistry and Natural …, 2017).
Where “and” joins values, the source holds several entries; their conditions need not be identical. Identical values can stand only once. Entries after “also recorded” stand apart in the source; their conditions may differ. Like-named read-outs stand apart in the source and are kept apart here.

Legend:
jack bean urease [1] = molecular target: T1, jack bean urease (Canavalia ensiformis, UniProt P07374); assay: biochemical
Protocol: The jack bean urease action was determined by measuring the ammonia produced by the indophenol method described by Weatherburn. The reaction mixtures, containing 50 µL of buffer (100 mM urea, 10 mM dibasic potassium phosphate, 1 mM EDTA and 10 mM LiCl, pH 8.2), 20 µL of sample and 20 µL of the jack bean urease (5 U/mL) were added in a 96-well plate and the plate was incubated at 37 °C for 30 min. After incubation, 50 μL of phenol reagent (1%, w/v phenol and 0.005%, w/v sodium nitroprusside) and 50 μL of alkali reagents (0.5%, w/v NaOH and 0.1% NaOCl) were added in each well, and again the plate was incubated at 37 °C for 10 min. After the second incubation, the absorbance was checked at 625 nm, using a microplate reader (OPTIMax, Tunable, Sunnyvale, CA, USA). All reactions were performed in triplicate. The urease inhibition activity was calculated according to the following formula:Inhibition (%) = [(B − S)/B] × 100 where B and S are the optical densities of sample and blank. Thiourea was used as reference.

[2] = Free radical scavenging assay (DPPH); settings: in comparison to the reference drug vitamin C
Protocol: Radical scavenging activity was determined by adjusting the already reported 2,2-diphenyl-1-picrylhydrazyl (DPPH) assay method. The assay arrangement comprised 100 µL of DPPH (150 µM), 20 µL of increasing concentrations of test compounds and the volume was adjusted to 200 µL in each well with DMSO. At a room temperature, the reaction mixture was incubated for 30 min. Ascorbic acid (Vitamin C) was utilized as a model inhibitor. The assay estimations were done by using a micro plate reader (OPTIMax, Tunable, Sunnyvale, CA, USA) at 517 nm. The response rates were analyzed and the percent inhibition caused by the presence of the tested inhibitor was calculated. Each concentration was analyzed in three independent experiments run thrice.

jack bean urease [3] = molecular target: T1, jack bean urease; assay: Kinetic mechanism study of urease inhibition (Lineweaver–Burk plots); format: biochemical; settings: for Ki′ (ESI dissociation constant): from intercept versus inhibitor concentration; for Inhibition Type: urea as substrate
Protocol: Kinetic analysis was carried out to determine the mode of inhibition. […] Kinetics were determined by varying the dose of urea in the presence of different doses of compound 3e (0.025, 0.05, 0.01 and 0.02 µM), compound 6a (0.00, 0.0011, 0.0022, and 0.0044 µM), compound 9e (0.00, 0.015, 0.03 and 0.06 µM) and compound 12d (0.0130, 0.026, 0.052, 0.104 and 0.208 µM). In detail the urea doses were varied between 100, 50, 25, 12.5, 6.25 and 3.125 mM mM for urease kinetics studies and the rest of the procedure was same for all kinetic studies as described in the urease inhibition assay protocol. Maximal initial velocities were determined from the initial linear portion of the absorbances up to 10 min after the addition of enzyme at per minute’s intervals. The inhibition type of the enzyme was assayed by Lineweaver–Burk plots of the inverse of velocities (1/V) versus the inverse of substrate concentration 1/[S] mM^−1. The EI dissociation constant Ki was determined by the secondary plot of 1/V versus inhibitor concentration and the ESI dissociation constant Ki′ was calculated from the intercept versus inhibitor concentrations. Urease activity was determined by measuring ammonia production using the indophenol method as reported previously. The results (change in absorbance per min) were recorded at 625 nm using a microplate reader (Optimax Tunable, Sunnyvale, CA, USA).

[4] = Urease Activity IC50 ± SEM, 100 mM urea, pH 8.2, 37 °C
[5] = 100 mM urea, pH 8.2, 37 °C, read-out: Urease Activity IC50 ± SEM

T1 sequence (P07374 whole entry, looked up): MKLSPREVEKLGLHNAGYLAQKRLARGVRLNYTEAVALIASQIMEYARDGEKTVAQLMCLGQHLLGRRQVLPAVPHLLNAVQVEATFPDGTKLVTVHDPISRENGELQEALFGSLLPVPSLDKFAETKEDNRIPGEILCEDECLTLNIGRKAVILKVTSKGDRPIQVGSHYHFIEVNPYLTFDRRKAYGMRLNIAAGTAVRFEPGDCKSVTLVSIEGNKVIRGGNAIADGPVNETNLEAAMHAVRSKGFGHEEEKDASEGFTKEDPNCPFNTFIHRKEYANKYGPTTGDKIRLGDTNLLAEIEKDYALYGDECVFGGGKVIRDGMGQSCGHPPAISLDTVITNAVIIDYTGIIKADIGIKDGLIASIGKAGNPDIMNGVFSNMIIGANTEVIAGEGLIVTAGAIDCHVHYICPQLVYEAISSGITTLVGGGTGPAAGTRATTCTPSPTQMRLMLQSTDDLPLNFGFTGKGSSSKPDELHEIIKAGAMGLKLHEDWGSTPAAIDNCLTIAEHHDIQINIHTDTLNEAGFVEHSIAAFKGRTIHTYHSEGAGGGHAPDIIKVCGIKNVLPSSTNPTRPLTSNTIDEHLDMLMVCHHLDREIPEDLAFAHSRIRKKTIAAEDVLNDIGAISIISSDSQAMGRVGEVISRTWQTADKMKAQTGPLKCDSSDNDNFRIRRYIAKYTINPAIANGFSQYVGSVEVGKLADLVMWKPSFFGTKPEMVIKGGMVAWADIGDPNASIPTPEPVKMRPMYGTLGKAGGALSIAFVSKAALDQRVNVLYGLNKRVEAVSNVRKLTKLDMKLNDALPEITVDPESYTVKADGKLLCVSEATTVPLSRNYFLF

Compound: Cc1ccc(S(=O)(=O)NC23CC4CC(CC(C4)C2)C3)cc1[N+](=O)[O-] [Compound 9f, N-(Adamantan-1-yl)-4-methyl-3-nitrobenzenesulfonamide]
- IC50 (jack bean urease [1]; [4]): 55.8 ± 1 nM

Compound: Cc1ccc(S(=O)(=O)NNC(N)=S)cc1 [Compound 12a, 2-Tosylhydrazine-1-carbothioamide]
- radical scavenging potency [2]: excellent radical scavenging potency
- IC50 (jack bean urease [1]; [4]): 225 ± 6 nM

Compound: O=[N+]([O-])c1ccc(S(=O)(=O)NC23CC4CC(CC(C4)C2)C3)cc1 [Compound 9b, N-(Adamantan-1-yl)-4-nitrobenzenesulfonamide]
- IC50 (jack bean urease [1]; [4]): 27.6 ± 1 nM

Compound: Cc1ccc(S(=O)(=O)NC23CC4CC(CC(C4)C2)C3)cc1 [Compound 9a, N-(Adamantan-1-yl)-4-methylbenzenesulfonamide]
- IC50 (jack bean urease [1]; [4]): 289 ± 15 nM

Compound: NC(N)=S [Thiourea, reference compound]
- IC50 (jack bean urease [1]; [5]): 17810 ± 96 nM

Compound: O=S(=O)(NC12CC3CC(CC(C3)C1)C2)c1ccc(-c2ccccc2)cc1 [Compound 9c, N-(Adamantan-1-yl)-[1,1′-biphenyl]-4-sulfonamide]
- IC50 (jack bean urease [1]; [4]): 17.8 nM

Compound: Cc1ccc(S(=O)(=O)NNC(N)=S)cc1[N+](=O)[O-] [Compound 12f, 2-((4-Methyl-3-nitrophenyl)sulfonyl)hydrazine-1-carbothioamide]
- radical scavenging potency [2]: excellent radical scavenging potency
- IC50 (jack bean urease [1]; [4]): 67 ± 2.9 nM
- melting point: 160 to 163 °C

Compound: Cc1ccc(S(=O)(=O)Nc2ccc(S(=O)(=O)Nc3ncccn3)cc2)cc1 [Compound 6a, 4-Methyl-N-(4-(N-(pyrimidin-2-yl)sulfamoyl)phenyl)benzenesulfonamide]
- Ki (jack bean urease [3]): 1.1 nM
- Ki′ (ESI dissociation constant) (jack bean urease [3]): 1.6 nM
- Vmax (jack bean urease [3]; inhibitor dose 0.0011 µM): 0.00769 ΔA/Min
- Vmax (jack bean urease [3]; inhibitor dose 0.0022 µM): 0.00493 ΔA/Min
- Vmax (jack bean urease [3]; inhibitor dose 0.0044 µM): 0.00351 ΔA/Min
- Inhibition Type (jack bean urease [3]): mixed type of mode inhibition
- IC50 (jack bean urease [1]; [4]): 2.23 nM and 2.2 nM and 2 nM
- melting point: 223 to 225 °C

Compound: NC(=S)NNS(=O)(=O)c1cccc(Cl)c1Cl [Compound 12d, 2-((2,3-Dichlorophenyl)sulfonyl)hydrazine-1-carbothioamide]
- radical scavenging potency [2]: excellent radical scavenging potency
- Ki (jack bean urease [3]): 53 nM
- Ki′ (ESI dissociation constant) (jack bean urease [3]): 125 nM
- Vmax (jack bean urease [3]; inhibitor dose 0.026 µM): 0.00213 ΔA/Min
- Vmax (jack bean urease [3]; inhibitor dose 0.052 µM): 0.00194 ΔA/Min
- Vmax (jack bean urease [3]; inhibitor dose 0.104 µM): 0.0016 ΔA/Min
- Vmax (jack bean urease [3]; inhibitor dose 0.208 µM): 0.001 ΔA/Min
- Inhibition Type (jack bean urease [3]): mixed type of mode inhibition
- IC50 (jack bean urease [1]; [4]): 26.6 nM and 26 nM
- melting point: 229 to 231 °C

Compound: O=[N+]([O-])c1ccccc1S(=O)(=O)Nc1ccc(S(=O)(=O)Nc2ncccn2)cc1 [Compound 6b, 2-Nitro-N-(4-(N-(pyrimidin-2-yl)sulfamoyl)phenyl)benzenesulfonamide]
- IC50 (jack bean urease [1]; read-out: Urease Activity IC50 ± SEM, 100 mM urea, pH 8.2, 37 °C): 233 ± 11 nM

Compound: Cc1cc(C)cc(S(=O)(=O)NNC(N)=S)c1 [Compound 12e, 2-((3,5-Dimethylphenyl)sulfonyl)hydrazine-1-carbothioamide]
- radical scavenging potency [2]: excellent radical scavenging potency
- IC50 (jack bean urease [1]; [4]): 96 ± 4 nM
- melting point: 160 to 162 °C

Compound: 2-((3,5-Dimethylphenyl)sulfonyl)hydrazine-1-carbothioamide [Compound 6e]
- IC50 (jack bean urease [1]; [5]): 174 ± 9 nM

Compound: NC(=S)NNS(=O)(=O)c1ccc(-c2ccccc2)cc1 [Compound 12c, 2-([1,1′-Biphenyl]-4-ylsulfonyl)hydrazine-1-carbothioamide]
- IC50 (jack bean urease [1]; [4]): 186 ± 7 nM

Compound: O=S(=O)(NC12CC3CC(CC(C3)C1)C2)c1cccc(Cl)c1Cl [Compound 9d, N-(Adamantan-1-yl)-2,3-dichlorobenzenesulfonamide]
- IC50 (jack bean urease [1]; [4]): 53.3 ± 1 nM
- melting point: 221 to 230 °C

Compound: O=S(=O)(Nc1ccc(S(=O)(=O)Nc2ncccn2)cc1)c1ccc(-c2ccccc2)cc1 [Compound 6c, N-(4-(N-(pyrimidin-2-yl)sulfamoyl)phenyl)-[1,1′-biphenyl]-4-sulfonamide]
- IC50 (jack bean urease [1]; [4]): 141 ± 7 nM
- melting point: 168 to 170 °C

Compound: Cc1cc(C)cc(S(=O)(=O)NC23CC4CC(CC(C4)C2)C3)c1 [Compound 9e, N-(Adamantan-1-yl)-3,5-dimethylbenzenesulfonamide]
- Ki (jack bean urease [3]): 22.5 nM
- Vmax (jack bean urease [3]; inhibitor dose 0.013 µM): 0.00299 ΔA/Min
- Vmax (jack bean urease [3]; inhibitor dose 0.015 µM): 0.00127 ΔA/Min
- Vmax (jack bean urease [3]; inhibitor dose 0.03 µM): 0.00108 ΔA/Min
- Vmax (jack bean urease [3]; inhibitor dose 0.06 µM): 0.00085 ΔA/Min
- Inhibition Type (jack bean urease [3]): non-competitive mode of inhibition; also recorded: non-competitive mechanism; also recorded: Noncompetitive
- IC50 (jack bean urease [1]; [4]): 25 nM
- melting point: 162 to 164 °C

Compound: 2-((4-Methyl-3-nitrophenyl)sulfonyl)hydrazine-1-carbothioamide [Compound 6f]
- IC50 (jack bean urease [1]; [5]): 127 ± 7.6 nM

Compound: 2-((2,3-Dichlorophenyl)sulfonyl)hydrazine-1-carbothioamide [Compound 6d]
- IC50 (jack bean urease [1]; [5]): 95 ± 4 nM

Compound: NC(=S)NNS(=O)(=O)c1ccc([N+](=O)[O-])cc1 [Compound 12b, 2-((4-Nitrophenyl)sulfonyl)hydrazine-1-carbothioamide]
- radical scavenging potency [2]: excellent radical scavenging potency
- IC50 (jack bean urease [1]; [4]): 141 ± 4 nM
- melting point: 160 to 162 °C
